Experimental data as given in patent US20240217960A1, “TRIAZINE DERIVATIVE AS COVALENT INHIBITORS OF PI3K” (UNIVERSITÄT BASEL, priority 2021, published 2024).
In brackets after ≈: the same amount, converted by molar mass.

How the values were obtained:
PBS solubility = assay type: physicochemical; settings: aqueous buffer, pH 7.4, 3 independent measurements
[1] = Intrinsic reactivity of the inhibitors (kchem) with βME measured with HPLC; assay type: physicochemical; settings: 1 mM inhibitor + 600 mM βME, n = 3
Experimental LogD = assay type: physicochemical; settings: pH 7.4; 3 independent measurements
[2] = tested on: pSer473 of PKB/Akt in SKOV3 cells; assay: In Cell Western cellular PI3K signaling and IC50 determination; assay type: cell-based; settings: Homo sapiens, SK-OV-3; SKOV3 cells; 2 or 3 independent measurements; read-out: IC50 pPKB (S473) SKOV3
Protocol: Protein phosphorylation was detected as follows: pSer473 of PKB/Akt with rabbit polyclonal antibody from Cell Signaling Technology (CST) (#4058) by In-Cell Western assays, where 1.2×10^4 SKOV3 cells/well in 96-well plates were plated (Cell Carrier, PerkinElmer) for 24 hours (37° C., 5% CO2), as described in Ref. ^25.

p110α (PI3Kα) = p110α (PI3Kα) (Homo sapiens, UniProt P42336); assay: Determination of kinetic constants (kinact, Ki) for p110α by LanthaScreen Technology; assay type: binding; settings: for Ki: dissociation constant of the first reversible binding, read-out: Ki PI3Kα; for Ki / kinact: global fitting with KinTek; for kinact: maximum potential rate of covalent bond formation, read-out: kinact PI3Kα; for kinact/KI: read-out: kinact/Ki PI3Kα
Chain of p110α (PI3Kα) (P42336 whole entry): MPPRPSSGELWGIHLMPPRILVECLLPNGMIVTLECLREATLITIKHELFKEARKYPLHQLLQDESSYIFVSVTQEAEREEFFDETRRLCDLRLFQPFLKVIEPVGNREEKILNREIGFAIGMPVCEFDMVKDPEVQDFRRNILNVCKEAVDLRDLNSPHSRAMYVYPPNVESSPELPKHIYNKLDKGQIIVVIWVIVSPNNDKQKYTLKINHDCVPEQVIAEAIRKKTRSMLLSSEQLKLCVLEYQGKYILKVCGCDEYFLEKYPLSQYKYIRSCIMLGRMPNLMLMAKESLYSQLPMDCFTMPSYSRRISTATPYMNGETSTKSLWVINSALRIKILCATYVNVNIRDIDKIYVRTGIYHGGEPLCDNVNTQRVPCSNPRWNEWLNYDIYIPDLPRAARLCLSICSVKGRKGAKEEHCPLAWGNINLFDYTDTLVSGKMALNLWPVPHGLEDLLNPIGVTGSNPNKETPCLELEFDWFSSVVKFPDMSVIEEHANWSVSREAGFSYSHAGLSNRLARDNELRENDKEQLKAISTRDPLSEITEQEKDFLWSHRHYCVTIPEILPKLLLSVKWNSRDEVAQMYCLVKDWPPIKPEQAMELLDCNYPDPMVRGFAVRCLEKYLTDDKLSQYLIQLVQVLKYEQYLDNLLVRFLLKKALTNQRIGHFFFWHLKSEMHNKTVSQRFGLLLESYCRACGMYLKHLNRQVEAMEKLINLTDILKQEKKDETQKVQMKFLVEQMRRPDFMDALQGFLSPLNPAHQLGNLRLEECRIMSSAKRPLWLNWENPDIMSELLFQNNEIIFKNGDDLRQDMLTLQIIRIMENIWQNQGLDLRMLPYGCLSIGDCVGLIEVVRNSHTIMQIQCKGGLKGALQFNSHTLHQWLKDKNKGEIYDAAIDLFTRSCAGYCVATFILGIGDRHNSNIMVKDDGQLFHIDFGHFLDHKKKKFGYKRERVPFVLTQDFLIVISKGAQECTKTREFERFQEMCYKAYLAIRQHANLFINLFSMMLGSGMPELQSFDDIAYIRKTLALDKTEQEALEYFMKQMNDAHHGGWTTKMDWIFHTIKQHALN
Chain of p110α (PI3Kα) (P27986 whole entry partner): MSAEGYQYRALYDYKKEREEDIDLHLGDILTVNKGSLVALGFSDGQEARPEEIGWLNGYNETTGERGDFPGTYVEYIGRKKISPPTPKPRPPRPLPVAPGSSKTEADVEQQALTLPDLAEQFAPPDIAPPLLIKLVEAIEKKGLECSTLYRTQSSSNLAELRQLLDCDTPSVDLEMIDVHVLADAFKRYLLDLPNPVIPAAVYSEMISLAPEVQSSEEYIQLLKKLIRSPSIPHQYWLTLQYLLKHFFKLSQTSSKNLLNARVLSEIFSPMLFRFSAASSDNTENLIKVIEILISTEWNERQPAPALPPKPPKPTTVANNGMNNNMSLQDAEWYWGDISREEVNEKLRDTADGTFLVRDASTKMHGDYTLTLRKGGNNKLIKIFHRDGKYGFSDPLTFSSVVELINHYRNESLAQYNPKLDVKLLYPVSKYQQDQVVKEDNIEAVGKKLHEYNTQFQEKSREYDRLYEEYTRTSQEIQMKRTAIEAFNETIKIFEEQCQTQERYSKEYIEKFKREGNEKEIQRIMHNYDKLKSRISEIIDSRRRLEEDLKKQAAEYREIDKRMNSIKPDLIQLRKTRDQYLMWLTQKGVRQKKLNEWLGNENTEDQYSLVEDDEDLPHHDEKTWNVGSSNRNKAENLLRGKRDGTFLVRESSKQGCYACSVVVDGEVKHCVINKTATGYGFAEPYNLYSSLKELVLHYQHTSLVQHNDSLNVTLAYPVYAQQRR

| solubility (PBS solubility) [µM] | logD (Experimental LogD) | Compound | kchem (intrinsic reactivity of the inhibitors) [1] [M⁻¹ s⁻¹] | IC50 [2] [nM] | Ki (p110α (PI3Kα)) [nM] | kinact (p110α (PI3Kα)) [s⁻¹] | kinact/KI (p110α (PI3Kα)) [M⁻¹ s⁻¹] |
| --- | --- | --- | --- | --- | --- | --- | --- |
| 10 (≈ 5.74 µg/mL) | 3.96 | CC(C)=CC(=O)CCC(=O)N1CCN(Cc2cc3nc(-c4cccc5[nH]ncc45)nc(N4CCOCC4)c3s2)CC1 [CNX-1351, 1-[4-[[2-(1H-indazol-4-yl)-4-(4-morpholinyl)thieno[3,2-d]pyrimidin-6-yl]methyl]-1-piperazinyl]-6-methyl-5-heptene-1,4-dione, reference compound] | 0.000222 |  |  |  |  |
|  |  | C/C=C/C(=O)CCCCCC(=O)N1CCN(c2nc(-c3cnc(N)nc3C(F)F)nc(N3CCOCC3)n2)CC1 [Compound 21, (E)-1-(4-(4-(2-amino-4-(difluoromethyl)pyrimidin-5-yl)-6-morpholino-1,3,5-triazin-2-yl)piperazin-1-yl)dec-8-ene-1,7-dione] | 0.0632 | 44.5 | 11.7 | 0.016 | 1.27e+06 |
|  |  | C=CC(=O)N1CCC(C(=O)N2CCN(c3nc(-c4cnc(N)nc4C(F)F)nc(N4CCOCC4)n3)CC2)CC1 [Compound 28, 1-(4-(4-(4-(2-amino-4-(difluoromethyl)pyrimidin-5-yl)-6-morpholino-1,3,5-triazin-2-yl)piperazine-1-carbonyl)piperidin-1-yl)prop-2-en-1-one] | 0.00041 | 51 | 10.8 | 5.77e-05 | 5390 |
|  |  | C=CC(=O)N1CCC(CC(=O)N2CCN(c3nc(-c4cnc(N)nc4C(F)F)nc(N4CCOCC4)n3)CC2)CC1 [Compound 35, 1-(4-(2-(4-(4-(2-amino-4-(difluoromethyl)pyrimidin-5-yl)-6-morpholino-1,3,5-triazin-2-yl)piperazin-1-yl)-2-oxoethyl)piperidin-1-yl)prop-2-en-1-one] | 0.000249 | 47 | 10.8 | 9.84e-05 | 9290 |
|  |  | C=CC(=O)N1CCC(CCC(=O)N2CCN(c3nc(-c4cnc(N)nc4C(F)F)nc(N4CCOCC4)n3)CC2)CC1 [Compound 40, 1-(4-(3-(4-(4-(2-amino-4-(difluoromethyl)pyrimidin-5-yl)-6-morpholino-1,3,5-triazin-2-yl)piperazin-1-yl)-3-oxopropyl)piperidin-1-yl)prop-2-en-1-one] | 0.000307 | 48 | 8.56 | 0.000292 | 34300 |
|  |  | C=CC(=O)N1CCC(C(=O)NCCC(=O)N2CCN(c3nc(-c4cnc(N)nc4C(F)F)nc(N4CCOCC4)n3)CC2)CC1 [Compound 48, 1-acryloyl-N-(3-(4-(4-(2-amino-4-(difluoromethyl)pyrimidin-5-yl)-6-morpholino-1,3,5-triazin-2-yl)piperazin-1-yl)-3-oxopropyl)piperidine-4-carboxamide] | 0.000452 | 664 | 14.1 | 0.000253 | 18000 |
|  |  | C=CC(=O)N1CCC(C(=O)NCCCC(=O)N2CCN(c3nc(-c4cnc(N)nc4C(F)F)nc(N4CCOCC4)n3)CC2)CC1 [Compound 51, 1-acryloyl-N-(4-(4-(4-(2-amino-4-(difluoromethyl)pyrimidin-5-yl)-6-morpholino-1,3,5-triazin-2-yl)piperazin-1-yl)-4-oxobutyl)piperidine-4-carboxamide] | 0.000437 | 686 | 10.7 | 0.000195 | 18800 |
|  |  | C=CC(=O)N1CCC(C(=O)N(C)CCC(=O)N2CCN(c3nc(-c4cnc(N)nc4C(F)F)nc(N4CCOCC4)n3)CC2)CC1 [Compound 57, 1-acryloyl-N-(3-(4-(4-(2-amino-4-(difluoromethyl)pyrimidin-5-yl)-6-morpholino-1,3,5-triazin-2-yl)piperazin-1-yl)-3-oxopropyl)-N-methylpiperidine-4-carboxamide] | 0.000388 | 250 | 14.6 | 0.000378 | 26100 |
|  |  | CN(C)C/C=C/C(=O)N1CCC(C(=O)N(C)CCC(=O)N2CCN(c3nc(-c4cnc(N)nc4C(F)F)nc(N4CCOCC4)n3)CC2)CC1 [Compound 58, (E)-N-(3-(4-(4-(2-amino-4-(difluoromethyl)pyrimidin-5-yl)-6-morpholino-1,3,5-triazin-2-yl)piperazin-1-yl)-3-oxopropyl)-1-(4-(dimethylamino)but-2-enoyl)-N-methylpiperidine-4-carboxamide] | 0.000386 | 260 | 12.2 | 0.000406 | 33600 |
| 381 (≈ 230 µg/mL) | 1.7 | C=CC(=O)N1CCC(COCC(=O)N2CCN(c3nc(-c4cnc(N)nc4C(F)F)nc(N4CCOCC4)n3)CC2)CC1 [Compound 61, 1-(4-((2-(4-(4-(2-amino-4-(difluoromethyl)pyrimidin-5-yl)-6-morpholino-1,3,5-triazin-2-yl)piperazin-1-yl)-2-oxoethoxy)methyl)piperidin-1-yl)prop-2-en-1-one] | 0.00029 |  |  |  |  |
| 393 (≈ 236 µg/mL) | 1.4 | C=CC(=O)N1CCC(C(=O)NCCN2CCN(c3nc(-c4cnc(N)nc4C(F)F)nc(N4CCOCC4)n3)CC2)CC1 [Compound 62, 1-acryloyl-N-(2-(4-(4-(2-amino-4-(difluoromethyl)pyrimidin-5-yl)-6-morpholino-1,3,5-triazin-2-yl)piperazin-1-yl)ethyl)piperidine-4-carboxamide] | 0.000518 | 82 | 16.2 | 0.000187 | 11600 |
|  |  | C=CC(=O)N1CCC(Cc2ccc(C(=O)N3CCN(c4nc(-c5cnc(N)nc5C(F)F)nc(N5CCOCC5)n4)CC3)cc2)CC1 [Compound 100, 1-(4-(4-(4-(4-(2-amino-4-(difluoromethyl)pyrimidin-5-yl)-6-morpholino-1,3,5-triazin-2-yl)piperazine-1-carbonyl)benzyl)piperidin-1-yl)prop-2-en-1-one] | 0.000324 | 56 | 9.11 | 0.000123 | 13700 |
| 46 (≈ 29.8 µg/mL) | 2.66 | C=CC(=O)N1CCC(Cc2cccc(C(=O)N3CCN(c4nc(-c5cnc(N)nc5C(F)F)nc(N5CCOCC5)n4)CC3)c2)CC1 [Compound 101, 1-(4-(3-(4-(4-(2-amino-4-(difluoromethyl)pyrimidin-5-yl)-6-morpholino-1,3,5-triazin-2-yl)piperazine-1-carbonyl)benzyl)piperidin-1-yl)prop-2-en-1-one] | 0.00029 | 43 | 10.5 | 0.00015 | 14300 |

| Compound | solubility (PBS solubility) [µM] | logD (Experimental LogD) | kchem (intrinsic reactivity of the inhibitors) [1] [M⁻¹ s⁻¹] | IC50 [2] [nM] | Ki (p110α (PI3Kα)) [nM] | kinact (p110α (PI3Kα)) [s⁻¹] | kinact/KI (p110α (PI3Kα)) [M⁻¹ s⁻¹] |
| --- | --- | --- | --- | --- | --- | --- | --- |
| C=CC(=O)N1CCC(CCCC(=O)N2CCN(c3nc(-c4cnc(N)nc4C(F)F)nc(N4CCOCC4)n3)CC2)CC1 [Compound 41, 4-(1-acryloylpiperidin-4-yl)-1-(4-(4-(2-amino-4-(difluoromethyl)pyrimidin-5-yl)-6-morpholino-1,3,5-triazin-2-yl)piperazin-1-yl)butan-1-one] | 243 (≈ 146 µg/mL) | 2.67 | 0.000225 |  |  |  |  |
